Test results from US20080255060A1, “Ester Linked Macrolides Useful For The Treatment of Microbial Infections” (priority 2004, published 2008).

Key:
Test in all cases: MIC, standard microtiter broth serial dilution test
Assay type in all cases: cell-based
[1] = test system: S. aureus Smith ATCC 0329; details: Staphylococcus aureus, ATCC0329
S. pneumoniae 0541 = details: Streptococcus pneumoniae
[2] = test system: erythromycin resistant strains of Streptococcus pneumoniae
S. pyogenes 0542 = details: Streptococcus pyogenes
E. faecalis ATCC 0004 = details: Enterococcus faecalis, ATCC0004
[3] = test system: erythromycin resistant strains of Streptococcus pyogenes
H. influenzae ATCC 0529 = details: Haemophilus influenzae, ATCC0529
M. catarrhalis ATCC 0324 = details: Moraxella catarrhalis, ATCC0324

Row | SMILES | MIC [1] [mg/L] | MIC (S. pneumoniae 0541) [mg/L] | MIC [2] [mg/L] | MIC (S. pyogenes 0542) [mg/L] | MIC (E. faecalis ATCC 0004) [mg/L] | MIC [3] [mg/L] | MIC (H. influenzae ATCC 0529) [mg/L] | MIC (M. catarrhalis ATCC 0324) [mg/L]
1 | CC[C@H]1OC(=O)[C@H](C)[C@@H](O[C@H]2C[C@@](C)(OC)[C@@H](OC(=O)CCOCCOCCNc3cc4c(=O)c(C(=O)O)cn(C5CC5)c4cc3Cl)[C@H](C)O2)[C@H](C)[C@@H](O[C@@H]2O[C@H](C)C[C@H](N(C)C)[C@H]2O)[C@](C)(O)C[C@@H](C)/C(=N\OCOCCOC)[C@H](C)[C@@H](O)[C@]1(C)O [Example 6, 4″-O-(3-{2-[2-(3-Carboxy-7-chloro-1-cyclopropyl-4-oxo-1,4-dihydro-quinolin-6-ylamino)-ethoxy]-ethoxy}-propionyl)-roxythromycin] | ≤ 1 | ≤ 1 | ≤ 0.25 | ≤ 1 | ≤ 1 | ≤ 0.25 |  | 
2 | CC[C@H]1OC(=O)[C@H](C)[C@@H](O[C@H]2C[C@@](C)(OC)[C@@H](OC(=O)CCOCCOCCNc3cc4c(=O)c(C(=O)O)cn(C5CC5)c4cc3Cl)[C@H](C)O2)[C@H](C)[C@@H](O[C@@H]2O[C@H](C)C[C@H](N(C)C)[C@H]2O)[C@](C)(O)C[C@@H](C)CN(C)[C@H](C)[C@@H](O)[C@]1(C)O [Example 8, 4″-O-(3-{2-[2-(3-Carboxy-7-chloro-1-cyclopropyl-4-oxo-1,4-dihydro-quinolin-6-ylamino)-ethoxy]-ethoxy}-propionyl)-azithromycin] | ≤ 1 | ≤ 1 | ≤ 0.25 | ≤ 1 | ≤ 1 | ≤ 0.25 | ≤ 2 | ≤ 2
3 | CC[C@H]1OC(=O)[C@H](C)[C@@H](O[C@H]2C[C@@](C)(OC)[C@@H](OC(=O)CCOCCOCCNc3ccc4c(c3)c(=O)c(C(=O)O)cn4C3CC3)[C@H](C)O2)[C@H](C)[C@@H](O[C@@H]2O[C@H](C)C[C@H](N(C)C)[C@H]2O)[C@](C)(O)C[C@@H](C)CN(C)[C@H](C)[C@@H](O)[C@]1(C)O [Example 11, 4″-O-(3-{2-[2-(3-Carboxy-1-cyclopropyl-4-oxo-1,4-dihydro-quinolin-6-ylamino)-ethoxy]-ethoxy}-propionyl)-azithromycin] | ≤ 1 | ≤ 1 | ≤ 0.25 | ≤ 1 | ≤ 1 | ≤ 0.25 | ≤ 2 | ≤ 2
4 | CCO/N=C1\[C@H](C)C[C@@](C)(O)[C@H](O[C@@H]2O[C@H](C)C[C@H](N(C)C)[C@H]2O)[C@@H](C)[C@H](OC2C[C@@](C)(OC)[C@@H](OC(=O)CCOCCOCCNc3cc4c(=O)c(C(=O)O)cn(C5CC5)c4cc3Cl)[C@H](C)O2)[C@@H](C)C(=O)O[C@H](CC)[C@@](C)(O)[C@H](O)[C@H]1C (stereo partly drawn) [Example 19, 4″-O-(3-{2-[2-(3-Carboxy-7-chloro-1-cyclopropyl-4-oxo-1,4-dihydro-quinolin-6-ylamino)-ethoxy]-ethoxy}-propionyl)-9(E)-ethoxyimino-erythromycin A] | ≤ 1 | ≤ 1 | ≤ 0.25 | ≤ 1 | ≤ 1 | ≤ 0.25 | ≤ 2 | ≤ 2
5 | CC[C@H]1OC(=O)[C@H](C)[C@@H](O[C@H]2C[C@@](C)(OC)[C@@H](OC(=O)CCOCCOCCNc3ccc4c(c3)c(=O)c(C(=O)O)cn4CC)[C@H](C)O2)[C@H](C)[C@@H](O[C@@H]2O[C@H](C)C[C@H](N(C)C)[C@H]2O)[C@](C)(O)C[C@@H](C)CN(C)[C@H](C)[C@@H](O)[C@]1(C)O [Example 30, 4″-O-(3-{2-[2-(3-Carboxy-1-ethyl-4-oxo-1,4-dihydro-quinoline-6-ylamino)-ethoxy]-ethoxy}-propionyl)-azithromycin] | ≤ 1 | ≤ 1 | ≤ 0.25 | ≤ 1 | ≤ 1 | ≤ 0.25 | ≤ 2 | ≤ 2
6 | CC[C@H]1OC(=O)[C@H](C)[C@@H](O[C@H]2C[C@@](C)(OC)[C@@H](OC(=O)CCOCCOCCNc3cc4c(=O)c(C(=O)O)cn(C(C)C)c4cc3Cl)[C@H](C)O2)[C@H](C)[C@@H](O[C@@H]2O[C@H](C)C[C@H](N(C)C)[C@H]2O)[C@](C)(O)C[C@@H](C)CN(C)[C@H](C)[C@@H](O)[C@]1(C)O [Example 31, 4″-O-(3-{2-[2-(3-carboxy-7-chloro-1-isopropyl-4-oxo-1,4-dihydro-quinoline-6-ylamino)-ethoxy]-ethoxy}-propionyl)-azithromycin] | ≤ 1 | ≤ 1 | ≤ 0.25 | ≤ 1 | ≤ 1 | ≤ 0.25 | ≤ 2 | ≤ 2
7 | CC[C@H]1OC(=O)[C@H](C)[C@@H](OC2C[C@@](C)(OC)[C@@H](OC(=O)CCOCCOCCNc3cc4c5c(c3)c(=O)c(C(=O)O)cn5CCC4)[C@H](C)O2)[C@H](C)[C@@H](O[C@@H]2O[C@H](C)C[C@H](N(C)C)[C@H]2O)[C@](C)(O)C[C@@H](C)CN(C)[C@H](C)[C@@H](O)[C@]1(C)O (stereo partly drawn) [Example 32, 4″-O-(3-{2-[2-(6-Carboxy-7-oxo-2,3-dihydro-1H,7H-pyrido[3,2,1-ij]quinolin-9-ylamino)-ethoxy]-ethoxy}-propionyl)-azithromycin] | ≤ 1 | ≤ 1 | ≤ 0.25 | ≤ 1 | ≤ 1 | ≤ 0.25 | ≤ 2 | ≤ 2
8 | CC[C@H]1OC(=O)[C@H](C)[C@@H](O[C@H]2C[C@@](C)(OC)[C@@H](OC(=O)CCOCCOCCNc3cc4c5c(c3)c(=O)c(C(=O)O)cn5CCC4)[C@H](C)O2)[C@H](C)[C@@H](O[C@@H]2O[C@H](C)C[C@H](N(C)C)[C@H]2O)[C@](C)(OC)C[C@@H](C)C(=O)[C@H](C)[C@@H](O)[C@]1(C)O [Example 33, 4″-O-(3-{2-[2-(6-Carboxy-7-oxo-2,3-dihydro-1H,7H-pyrido[3,2,1-ij]quinolin-9-ylamino)-ethoxy]-ethoxy}-propionyl)-6-O-methyl-erythromycin A] | ≤ 1 | ≤ 1 | ≤ 0.25 | ≤ 1 | ≤ 1 | ≤ 0.25 | ≤ 2 | ≤ 2
9 | CC[C@H]1OC(=O)[C@H](C)[C@@H](OC2C[C@@](C)(OC)[C@@H](OC(=O)CCNCCOCCCc3ccc4c(c3)c(=O)c(C(=O)O)cn4CC)[C@H](C)O2)[C@H](C)[C@@H](OC2O[C@H](C)C[C@H](N(C)C)[C@H]2O)[C@](C)(OC)C[C@@H](C)C(=O)[C@H](C)[C@@H](O)[C@]1(C)O (stereo partly drawn) [Example 37, 4″-O-(3-{2-[3-(3-Carboxy-1-ethyl-4-oxo-1,4-dihydro-quinolin-6-yl)-propoxy]-ethylamino}-propionyl)-6-O-methyl-erythromycin A] | ≤ 1 | ≤ 1 | ≤ 0.25 | ≤ 1 | ≤ 1 | ≤ 0.25 | ≤ 2 | ≤ 2
10 | CC[C@H]1OC(=O)[C@H](C)[C@@H](O[C@H]2C[C@@](C)(OC)[C@@H](OC(=O)CCOCCOCCCc3ccc4c(c3)c(=O)c(C(=O)O)cn4CC)[C@H](C)O2)[C@H](C)[C@@H](OC2O[C@H](C)C[C@H](N(C)C)[C@H]2O)[C@](C)(O)C[C@@H](C)CN(C)[C@H](C)[C@@H](O)[C@]1(C)O (stereo partly drawn) [Example 49, 4″-O-(3-{2-[3-(3-carboxy-1-ethyl-4-oxo-1,4-dihydro-quinolin-6-yl)-propoxy]-ethoxy}-propionyl)-azithromycin] | ≤ 1 | ≤ 1 | ≤ 0.25 | ≤ 1 | ≤ 1 | ≤ 0.25 | ≤ 2 | ≤ 2
11 | CCO/N=C1\[C@H](C)C[C@@](C)(O)[C@H](OC2O[C@H](C)C[C@H](N(C)C)[C@H]2O)[C@@H](C)[C@H](OC2C[C@@](C)(OC)[C@@H](OC(=O)CCOCCOCCCc3ccc4c(c3)c(=O)c(C(=O)O)cn4CC)[C@H](C)O2)[C@@H](C)C(=O)O[C@H](CC)[C@@](C)(O)[C@H](O)[C@H]1C (stereo partly drawn) [Example 52, 9-Ethyloximino-4″-O-(3-{2-[3-(3-carboxy-1-ethyl-4-oxo-1,4-dihydro-quinolin-6-yl)-propoxy]-ethoxy}-propionyl)-erythromycin A] |  |  | ≤ 0.25 |  |  | ≤ 0.25 |  | 
12 | CC[C@H]1OC(=O)[C@H](C)[C@@H](O[C@H]2C[C@@](C)(OC)[C@@H](OC(=O)CCOCCOCCOc3cc4c(=O)c(C(=O)O)cn(C5CC5)c4cc3Cl)[C@H](C)O2)[C@H](C)[C@@H](O[C@@H]2O[C@H](C)C[C@H](N(C)C)[C@H]2O)[C@](C)(O)C[C@@H](C)CN(C)[C@H](C)[C@@H](O)[C@]1(C)O [Example 55, 4″-O-(3-{2-[2-(3-Carboxy-7-chloro-1-cyclopropyl-4-oxo-1,4-dihydro-quinolin-6-yloxy)-ethoxy]-ethoxy}-propionyl)-azithromycin] | ≤ 1 | ≤ 1 | ≤ 0.25 | ≤ 1 | ≤ 1 | ≤ 0.25 | ≤ 2 | ≤ 2
13 | CC[C@H]1OC(=O)[C@H](C)[C@@H](O[C@H]2C[C@@](C)(OC)[C@@H](OC(=O)CCNCCOCCOCCNc3cc4c(=O)c(C(=O)O)cn(C5CC5)c4cc3Cl)[C@H](C)O2)[C@H](C)[C@@H](O[C@@H]2O[C@H](C)C[C@H](N(C)C)[C@H]2O)[C@](C)(O)C[C@@H](C)CN(C)[C@H](C)[C@@H](O)[C@]1(C)O [Example 65, 4″-O-[3-(2-{2-[2-(3-Carboxy-7-chloro-1-cyclopropyl-4-oxo-1,4-dihydro-quinolin-6-ylamino)-ethoxy]-ethoxy}-ethylamino)-propionyl]-azithromycin] | ≤ 1 | ≤ 1 | ≤ 0.25 | ≤ 1 | ≤ 1 | ≤ 0.25 | ≤ 2 | ≤ 2
